PubChem BioAssay (NCI)
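48-hour exposure; five concentrations; linearly interpolated endpoints. GI50 marks 50% less growth. Definition used: TGI = concentration required for complete inhibition of growth.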

Legend:
Assay in all cases: growth of human tumour cells (NCI), 48 h
[1] = system: NCI-H23 lung
[2] = system: K-562 leukemia
[3] = system: HCC-2998 colon
[4] = system: HOP-92 NSCLC
[5] = system: NCI-H522 lung
[6] = system: OVCAR-8 ovarian
[7] = system: SW-620 colon
[8] = system: SK-MEL-5 melanoma
[9] = system: T-47D breast
[10] = system: LOX IMVI melanoma
[11] = system: OVCAR-4 ovarian
[12] = system: RXF 393 renal
[13] = system: CAKI-1 renal
[14] = system: SF-295 CNS
[15] = system: EKVX NSCLC
[16] = system: SNB-19 CNS
[17] = system: IGROV1 ovarian
[18] = system: NCI-H226 lung
[19] = system: SNB-75 CNS
[20] = system: CCRF-CEM leukemia
[21] = system: SF-539 CNS
[22] = system: HOP-62 NSCLC
[23] = system: A498 renal
[24] = system: HCT-116 colon
[25] = system: COLO 205 colon
[26] = system: KM12 colon
[27] = system: SR leukemia
[28] = system: NCI-H460 lung
[29] = system: PC-3 prostate
[30] = system: A549 NSCLC
[31] = system: DU-145 prostate
[32] = system: MALME-3M melanoma
[33] = system: MCF7 breast
[34] = system: ACHN renal
[35] = system: UACC-62 melanoma
[36] = system: SK-OV-3 ovarian
[37] = system: MDA-MB-435
[38] = system: U251 CNS
[39] = system: SF-268 CNS
[40] = system: MOLT-4 leukemia
[41] = system: TK-10 renal
[42] = system: OVCAR-3 ovarian
[43] = system: HCT-15 colon
[44] = system: RPMI-8226 leukemia
[45] = system: MDA-N
[46] = system: SN12C renal
[47] = system: 786-0 renal
[48] = system: UO-31 renal
[49] = system: HS 578T breast
[50] = system: UACC-257 melanoma
[51] = system: OVCAR-5 ovarian
[52] = system: SK-MEL-28 melanoma
[53] = system: HT29 colon
[54] = system: NCI/ADR-RES ovarian
[55] = system: MDA-MB-231 breast
[56] = system: HL-60(TB) leukemia
[57] = system: M14 melanoma
[58] = system: BT-549 breast
[59] = system: SK-MEL-2 melanoma

Molecule `O=c1[nH]nc(Cc2ccccc2)n1C1CC1` has a TGI [1] greater than 100 µM, a TGI [2] greater than 100 µM and a TGI [3] greater than 100 µM. The TGI [4] was greater than 100 µM, the TGI [5] was greater than 100 µM and the TGI [6] was greater than 100 µM. It also gave a TGI [7] greater than 100 µM, a TGI [8] greater than 100 µM and a TGI [9] greater than 100 µM. The TGI [10] was greater than 100000 nM, the TGI [11] was greater than 100 µM and the TGI [12] was greater than 100 µM. The TGI [13] was greater than 100 µM, the TGI [14] was greater than 100 µM and the TGI [15] was greater than 100 µM. It also gave a TGI [16] greater than 100 µM, a TGI [17] greater than 100 µM and a TGI [18] greater than 100 µM. For the same molecule, the TGI [19] was greater than 100 µM, the TGI [20] was greater than 100 µM and the TGI [21] was greater than 100 µM. It also gave a TGI [22] greater than 100 µM, a TGI [23] greater than 100 µM and a TGI [24] greater than 100 µM. It also gave a TGI [25] greater than 100 µM, a TGI [26] greater than 100 µM and a TGI [27] greater than 100 µM. The TGI [28] was greater than 100 µM, the TGI [29] was greater than 100 µM and the TGI [30] was greater than 100 µM. For the same molecule, the TGI [31] was greater than 100 µM, the TGI [32] was greater than 100 µM and the TGI [33] was greater than 100 µM. The TGI [34] was greater than 100 µM, the TGI [35] was greater than 100 µM and the TGI [36] was greater than 100 µM. It also gave a TGI [37] greater than 100 µM, a TGI [38] greater than 100 µM and a TGI [39] greater than 100 µM. The TGI [40] was greater than 100 µM, the TGI [41] was greater than 100 µM and the TGI [42] was greater than 100 µM. The TGI [43] was greater than 100 µM, the TGI [44] was greater than 100 µM and the TGI [45] was greater than 100 µM. It also gave a TGI [46] greater than 100 µM, a TGI [47] greater than 100 µM and a TGI [48] greater than 100 µM. The TGI [49] was greater than 100 µM, the TGI [50] was greater than 100 µM and the TGI [51] was greater than 100 µM. The TGI [52] was greater than 100 µM, the TGI [53] was greater than 100 µM and the TGI [54] was greater than 100 µM. It also gave a TGI [55] greater than 100 µM, a TGI [56] greater than 100 µM and a TGI [57] greater than 100 µM.
Work on `NC(N)=N/N=C/c1c(-c2ccc(Cl)cc2)nc2sc(Cl)cn12` yielded a TGI [1] of 2.48 µM, a TGI [4] of 3.17 µM and a TGI [5] of 3.47 µM. The TGI [6] was 2.53 µM, the TGI [7] was 2.28 µM and the TGI [8] was 2.97 µM. The TGI [9] was 2.64 µM, the TGI [11] was 2.18 µM and the TGI [13] was 2.82 µM. For the same molecule, the TGI [14] was 3.18 µM, the TGI [17] was 2.04 µM and the TGI [18] was 3.36 µM. For the same molecule, the TGI [19] was 2.72 µM, the TGI [21] was 2.53 µM and the TGI [22] was 3.25 µM. For the same molecule, the TGI [23] was 3.17 µM, the TGI [25] was 2.12 µM and the TGI [26] was 2.2 µM. For the same molecule, the TGI [28] was 3.21 µM, the TGI [29] was greater than 100 µM and the TGI [31] was 3.37 µM. For the same molecule, the TGI [34] was greater than 100 µM, the TGI [35] was 3.25 µM and the TGI [36] was 3.34 µM. It also gave a TGI [37] of 2.57 µM, a TGI [41] of 3.1 µM and a TGI [42] of 2.88 µM. The TGI [43] was 2.69 µM, the TGI [45] was 3.13 µM and the TGI [48] was 3.1 µM. The TGI [50] was 3.2 µM, the TGI [51] was 3.1 µM and the TGI [52] was 3.21 µM. It also gave a TGI [54] of 3.31 µM and a TGI [55] of 3.29 µM.
`Cc1ccccc1CNc1c2ccccc2nc2ccccc12` gave a GI50 [1] of 1710 nM, a TGI [1] of 4.24 µM and a GI50 [2] of 2320 nM. For the same molecule, the TGI [2] was 11.4 µM, the GI50 [3] was 1730 nM and the TGI [3] was 3.65 µM. For the same molecule, the GI50 [4] was 834 nM, the TGI [4] was 4.54 µM and the GI50 [5] was 1610 nM. The TGI [5] was 4.32 µM, the GI50 [6] was 2630 nM and the TGI [6] was 12.2 µM. The GI50 [7] was 1770 nM, the TGI [7] was 5.64 µM and the GI50 [58] was 2180 nM. For the same molecule, the TGI [58] was 6.15 µM, the GI50 [8] was 1690 nM and the TGI [8] was 3.05 µM. For the same molecule, the GI50 [9] was 2080 nM, the TGI [9] was 5.93 µM and the GI50 [10] was 1490 nM. It also gave a TGI [10] of 2930 nM, a GI50 [11] of 1920 nM and a TGI [11] of 6.4 µM. For the same molecule, the GI50 [12] was 1630 nM, the TGI [12] was 3.14 µM and the GI50 [13] was 1420 nM. The TGI [13] was 3.45 µM, the GI50 [14] was 2670 nM and the TGI [14] was 11.8 µM. For the same molecule, the GI50 [15] was 2430 nM, the TGI [15] was 8.02 µM and the GI50 [16] was 3.27 µM. For the same molecule, the TGI [16] was 13.7 µM, the GI50 [17] was 2000 nM and the TGI [17] was 5.01 µM. It also gave a GI50 [18] of 2240 nM, a TGI [18] of 6.17 µM and a GI50 [19] of 1700 nM. For the same molecule, the TGI [19] was 8.36 µM, the GI50 [20] was 1970 nM and the TGI [20] was 12.6 µM. The GI50 [21] was 1840 nM, the TGI [21] was 4 µM and the GI50 [22] was 3.02 µM. For the same molecule, the TGI [22] was 14.6 µM, the GI50 [23] was 1420 nM and the TGI [23] was 2.96 µM. It also gave a GI50 [24] of 1110 nM, a TGI [24] of 8.31 µM and a GI50 [25] of 1600 nM. For the same molecule, the TGI [25] was 3.5 µM, the GI50 [26] was 2950 nM and the TGI [26] was 10.1 µM. For the same molecule, the GI50 [27] was 1720 nM, the TGI [27] was 5.87 µM and the GI50 [28] was 1860 nM. The TGI [28] was 4.71 µM, the GI50 [29] was 1880 nM and the TGI [29] was 8.79 µM. For the same molecule, the GI50 [30] was 2090 nM, the TGI [30] was 5.22 µM and the GI50 [31] was 2910 nM. For the same molecule, the TGI [31] was 10.1 µM, the GI50 [32] was 1660 nM and the TGI [32] was 3.11 µM. It also gave a GI50 [33] of 1840 nM, a TGI [33] of 4.78 µM and a GI50 [34] of 1650 nM. The TGI [34] was 3.66 µM, the GI50 [35] was 1830 nM and the TGI [35] was 4.28 µM. The GI50 [36] was 2620 nM, the TGI [36] was 9.91 µM and the GI50 [37] was 1670 nM. The TGI [37] was 3.18 µM, the GI50 [38] was 2910 nM and the TGI [38] was 11.4 µM. It also gave a GI50 [39] of 2670 nM, a TGI [39] of 9.33 µM and a GI50 [40] of 2670 nM. It also gave a TGI [40] of 8.14 µM, a GI50 [41] of 2780 nM and a TGI [41] of 11.7 µM. It also gave a GI50 [42] of 2390 nM, a TGI [42] of 5.93 µM and a GI50 [43] of 1800 nM. For the same molecule, the TGI [43] was 4.02 µM, the GI50 [44] was 1520 nM and the TGI [44] was 4.56 µM. The GI50 [46] was 2470 nM, the TGI [46] was 8.97 µM and the GI50 [47] was 2540 nM. For the same molecule, the TGI [47] was 7.47 µM, the GI50 [48] was 1330 nM and the TGI [48] was 3.91 µM. The GI50 [49] was 2340 nM, the TGI [49] was 5.99 µM and the GI50 [50] was 2200 nM. It also gave a TGI [50] of 5.23 µM, a GI50 [51] of 2080 nM and a TGI [51] of 7.57 µM. For the same molecule, the GI50 [52] was 2150 nM, the TGI [52] was 5.02 µM and the GI50 [59] was 2010 nM. The TGI [59] was 4.19 µM, the GI50 [53] was 1970 nM and the TGI [53] was 10 µM. It also gave a GI50 [54] of 2070 nM, a TGI [54] of 6.16 µM and a GI50 [55] of 1700 nM. The TGI [55] was 4.19 µM, the GI50 [56] was 2170 nM and the TGI [56] was 5.06 µM. For the same molecule, the GI50 [57] was 1510 nM and the TGI [57] was 3.2 µM.
